According to PubChem BioAssay AID248 (DTP/NCI, 2004):
Several values for one entry are separate records, joined by “and”; a condition that tells them apart may be missing. Identical values can stand only once. Toxic doses and inconclusive results are not listed. Rule as the data show it: active = T/C of 150% or more; inactive = T/C below 125%.

System: L1210 leukemia ip in BDF1 mice, survival T/C
Assay: NCI In Vivo Anticancer Drug Screen. Data for tumor model L1210 Leukemia (intraperitoneal) in B6D2F1 (BDF1) mice
Conditions: endpoint: mean survival time, higher = longer survival
Method in brief: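 Value reflects the ratio of survival in compound-treated mice to survival in vehicle-treated controls, with both groups carrying the same transplanted tumor.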

[1] = dose: 100.0 mg/kg/injection, schedule: Q01DX009 (ip), vehicle: saline with Tween-80
[2] = dose: 200.0 mg/kg/injection, schedule: Q01DX009 (ip), vehicle: saline with Tween-80
[3] = dose: 100.0 mg/kg/injection, schedule: Q04DX003 (ip), vehicle: Klucel (hydroxypropylcellulose) (HPC)
[4] = dose: 200.0 mg/kg/injection, schedule: Q04DX003 (ip), vehicle: Klucel (hydroxypropylcellulose) (HPC)
[5] = dose: 400.0 mg/kg/injection, schedule: Q04DX003 (ip), vehicle: Klucel (hydroxypropylcellulose) (HPC)
[6] = dose: 100.0 mg/kg/injection, schedule: Q01DX009 (ip), vehicle: Klucel (hydroxypropylcellulose) (HPC)
[7] = dose: 200.0 mg/kg/injection, schedule: Q01DX009 (ip), vehicle: Klucel (hydroxypropylcellulose) (HPC)
[8] = dose: 400.0 mg/kg/injection, schedule: Q01DX009 (ip), vehicle: Klucel (hydroxypropylcellulose) (HPC)
[9] = dose: 100.0 mg/kg/injection, schedule: Q01DX001 (ip), vehicle: carboxymethylcellulose (CMC)
[10] = dose: 200.0 mg/kg/injection, schedule: Q01DX001 (ip), vehicle: carboxymethylcellulose (CMC)
[11] = dose: 50.0 mg/kg/injection, schedule: Q04DX003 (ip), vehicle: Klucel (hydroxypropylcellulose) (HPC)
[12] = dose: 100.0 mg/kg/injection, schedule: Q01DX001 (ip), vehicle: saline
[13] = dose: 100.0 mg/kg/injection, schedule: Q01DX009 (ip), vehicle: saline
[14] = dose: 200.0 mg/kg/injection, schedule: Q01DX001 (ip), vehicle: saline
[15] = dose: 200.0 mg/kg/injection, schedule: Q01DX009 (ip), vehicle: saline
[16] = dose: 400.0 mg/kg/injection, schedule: Q01DX001 (ip), vehicle: saline
[17] = dose: 100.0 mg/kg/injection, schedule: Q04DX002 (ip), vehicle: Klucel (hydroxypropylcellulose) (HPC)
[18] = dose: 200.0 mg/kg/injection, schedule: Q04DX002 (ip), vehicle: Klucel (hydroxypropylcellulose) (HPC)
[19] = dose: 400.0 mg/kg/injection, schedule: Q04DX002 (ip), vehicle: Klucel (hydroxypropylcellulose) (HPC)

Measured: T/C

O=C(Nc1ccccc1C(F)(F)F)c1ccc(C(=O)Nc2ccccc2C(F)(F)F)cc1
inactive: [1] 90 % of control | dose: 100.0 mg/kg/injection, schedule: Q04DX003 (ip), vehicle: saline with Tween-80 90 % of control | [2] 87 % of control | dose: 200.0 mg/kg/injection, schedule: Q04DX003 (ip), vehicle: saline with Tween-80 90 % of control | dose: 400.0 mg/kg/injection, schedule: Q01DX009 (ip), vehicle: saline with Tween-80 100 % of control | dose: 400.0 mg/kg/injection, schedule: Q04DX003 (ip), vehicle: saline with Tween-80 91 % of control

CC1(C)CC(C(N)=O)C(C)(C)N1O (stereo unspecified)
inactive: dose: 75.0 mg/kg/injection, schedule: Q01DX009 (ip), vehicle: other 104 % of control | dose: 150.0 mg/kg/injection, schedule: Q01DX009 (ip), vehicle: other 101 % of control | dose: 300.0 mg/kg/injection, schedule: Q01DX009 (ip), vehicle: other 100 % of control

CC(=O)OCC1OC(NC(=O)NCCCl)C(OC(C)=O)C(OC(C)=O)C1OC(C)=O (stereo unspecified)
inactive: dose: 100.0 mg/kg/injection, schedule: Q01DX001 (ip), vehicle: Klucel (hydroxypropylcellulose) (HPC) 101 % of control | dose: 200.0 mg/kg/injection, schedule: Q01DX001 (ip), vehicle: Klucel (hydroxypropylcellulose) (HPC) 104 % of control | dose: 400.0 mg/kg/injection, schedule: Q01DX001 (ip), vehicle: Klucel (hydroxypropylcellulose) (HPC) 104 % of control

Nc1ncnc2c1ncn2C1OC(C2CC2)C(O)C1O (stereo unspecified)
inactive: dose: 25.0 mg/kg/injection, schedule: Q01DX005 (ip), vehicle: saline 111 % of control | dose: 50.0 mg/kg/injection, schedule: Q01DX005 (ip), vehicle: saline 104 % of control | dose: 100.0 mg/kg/injection, schedule: Q01DX005 (ip), vehicle: saline 98 % of control | dose: 200.0 mg/kg/injection, schedule: Q01DX005 (ip), vehicle: saline 94 % of control

COc1cc(C=O)c(Oc2cc(C=O)ccc2OC)cc1OC
inactive: [3] 97 % of control | [4] 100 % of control | [5] 103 % of control

CC(=O)[C@H]1[C@H](C)C[C@H]2[C@@H]3CCC4=CC(=O)CC[C@]4(C)[C@@]3(F)[C@@H](O)C[C@@]21C
inactive: [6] 103 % of control | [3] 100 % of control | [7] 101 % of control | [4] 97 % of control | [8] 97 % of control | [5] 101 % of control

C=CCc1c2c(ccc(=O)c1O)-c1c(cc(OC)c(OC)c1OC)CCC2NC(C)=O (stereo unspecified)
inactive: [9] 117 % of control | dose: 177.6 mg/kg/injection, schedule: Q01DX001 (ip), vehicle: carboxymethylcellulose (CMC) 110 % of control and 119 % of control | [10] 117 % of control | dose: 266.8 mg/kg/injection, schedule: Q01DX001 (ip), vehicle: carboxymethylcellulose (CMC) 95 % of control and 118 % of control

COC(=O)/C=C/c1cccnc1
inactive: [11] 103 % of control | [3] 93 % of control | [4] 103 % of control

O=C(C=C(C(F)(F)F)C(F)(F)F)c1ccccc1
inactive: [12] 100 % of control | [13] 91 % of control | [14] 94 % of control | [15] 100 % of control | [16] 109 % of control

CCCCN(C(C)(C)C(SSSC(c1ccc(Cl)cc1)C(C)(C)N(CCCC)S(C)(=O)=O)c1ccc(Cl)cc1)S(C)(=O)=O (stereo unspecified)
inactive: [1] 96 % of control | [2] 86 % of control

O=C(O)c1ccnc(C(=O)O)c1
inactive: [13] 89 % of control | dose: 100.0 mg/kg/injection, schedule: Q04DX003 (ip), vehicle: saline sonified 98 % of control | [15] 93 % of control | dose: 200.0 mg/kg/injection, schedule: Q04DX003 (ip), vehicle: saline sonified 93 % of control | dose: 400.0 mg/kg/injection, schedule: Q01DX009 (ip), vehicle: saline 97 % of control | dose: 400.0 mg/kg/injection, schedule: Q04DX003 (ip), vehicle: saline sonified 92 % of control

CCn1cc(C(=O)O)c(=O)c2ccc3ccccc3c21
inactive: [17] 100 % of control | [18] 103 % of control | [19] 100 % of control

CN(C)c1ccccc1C(=O)N/N=C/c1ccc(F)cc1
inactive: [6] 95 % of control | [3] 99 % of control | [7] 93 % of control | [4] 99 % of control | [8] 96 % of control | [5] 93 % of control

Clc1cccc(/C=N/Nc2nnc(N/N=C/c3cccc(Cl)c3)c3ccccc23)c1
inactive: dose: 50.0 mg/kg/injection, schedule: Q01DX001 (ip), vehicle: saline 100 % of control | [12] 103 % of control | [14] 100 % of control | [16] 100 % of control

Cc1c(C(C)(C)C)cc(CC(C)C)c(O)c1-c1c(C)c(CC(C)C)cc(C(C)(C)C)c1O
inactive: [17] 98 % of control | [18] 91 % of control | [19] 94 % of control

Cn1ncc2ccccc2c1=O
inactive: [11] 100 % of control | [3] 100 % of control | [4] 106 % of control | [5] 110 % of control

CN(C)N=Nc1ccc(C(=O)NC(CCC(=O)NN)C(=O)NN)cc1 (stereo unspecified)
inactive: [12] 96 % of control | [14] 111 % of control | [16] 94 % of control

Cc1cc(N(CCCl)CCCl)ccc1C=Nc1cccc(Cl)c1
inactive: dose: 50.0 mg/kg/injection, schedule: Q01DX001 (ip), vehicle: carboxymethylcellulose (CMC) 100 % of control | [9] 107 % of control | [10] 100 % of control | dose: 400.0 mg/kg/injection, schedule: Q01DX001 (ip), vehicle: carboxymethylcellulose (CMC) 94 % of control

Cc1ccccc1N=C(N)Nc1ccccc1C
inactive: dose: 2.5 mg/kg/injection, schedule: Q01DX009 (ip), vehicle: saline with Tween-80 103 % of control | dose: 5.0 mg/kg/injection, schedule: Q01DX001 (ip), vehicle: carboxymethylcellulose (CMC) 108 % of control | dose: 5.0 mg/kg/injection, schedule: Q01DX009 (ip), vehicle: saline with Tween-80 97 % of control | dose: 6.25 mg/kg/injection, schedule: Q01DX009 (ip), vehicle: other 95 % of control | dose: 6.25 mg/kg/injection, schedule: Q04DX003 (ip), vehicle: other 96 % of control | dose: 10.0 mg/kg/injection, schedule: Q01DX001 (ip), vehicle: carboxymethylcellulose (CMC) 114 % of control | dose: 10.0 mg/kg/injection, schedule: Q01DX009 (ip), vehicle: saline with Tween-80 97 % of control | dose: 12.5 mg/kg/injection, schedule: Q01DX001 (ip), vehicle: other 96 % of control | dose: 12.5 mg/kg/injection, schedule: Q01DX009 (ip), vehicle: other 95 % of control | dose: 12.5 mg/kg/injection, schedule: Q04DX003 (ip), vehicle: other 93 % of control | dose: 20.0 mg/kg/injection, schedule: Q01DX001 (ip), vehicle: carboxymethylcellulose (CMC) 117 % of control | dose: 25.0 mg/kg/injection, schedule: Q01DX001 (ip), vehicle: other 96 % of control | dose: 25.0 mg/kg/injection, schedule: Q01DX009 (ip), vehicle: other 94 % of control | dose: 25.0 mg/kg/injection, schedule: Q04DX003 (ip), vehicle: other 100 % of control
